pIC50: −log10 of the molar value. ≈ marks a conversion by molar mass, not a printed value. Like-named read-outs stand apart in the source and are kept apart here.
Key:
[1] = molecular target: T1, S. aureus ATCC 29213 FabI (Staphylococcus aureus, UniProt Q6GI75); assay: Staphylococcus aureus FabI enzyme inhibition assay; format: biochemical; settings: 30 minutes at room temperature, NADH consumption
T1 sequence (Q6GI75 1-256): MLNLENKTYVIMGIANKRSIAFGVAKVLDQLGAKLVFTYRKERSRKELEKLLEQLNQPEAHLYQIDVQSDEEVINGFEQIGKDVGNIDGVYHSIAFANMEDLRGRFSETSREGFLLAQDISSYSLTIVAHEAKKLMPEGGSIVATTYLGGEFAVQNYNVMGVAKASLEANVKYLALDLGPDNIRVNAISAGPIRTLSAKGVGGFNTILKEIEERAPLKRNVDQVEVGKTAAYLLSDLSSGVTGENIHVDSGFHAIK
Method: FabI enzyme inhibition assays were carried out in half-area, 384-well microtitre plates. Compounds were evaluated in 40-μl assay mixtures containing 100 mM NaADA, pH 6.5 (ADA=N-[2-acetamido]-2iminodiacetic acid), 250 μM crotonoyl-CoA, 625 μM NADH and 50 μg/ml S. aureus ATCC 29213 FabI Inhibitors were typically varied over the range of 50 to 0.39 μM. The reaction mixtures were incubated for 30 minutes at room temperature and the reaction was stopped by adding 200 mM Tris buffer (pH 9.0) to create a pH-shift. The consumption of NADH was monitored by measuring the change in absorbance at […]. By comparing sample readings to those of negative (absence of compound) and positive (absence of enzyme) controls, the percent inhibition of enzymatic activity of the compounds was determined. A best-fit curve is fitted by a minimum of squares method. From this an IC50-value (expressed in μg/ml), resulting in 50% inhibition of enzymatic activity, was obtained.

S. aureus = assay: Antibacterial susceptibility testing: IC90 determination with 10% human serum (STA + 10% HS); format: cell-based; settings: Staphylococcus aureus; S. aureus with human serum at final concentration of 10%; read-out: STA + 10% HS (361.169) IC90
Method: The following bacteria were used: Staphylococcus aureus ATCC 29213, methicillin-resistant Staphylococcus aureus (MRSA) ATCC 700788 and Escherichia coli ATCC 35218. The bacteria used in this study were grown overnight in flasks containing 100 ml Mueller-Hinton broth (Difco cat. nr. 0757-17) in sterile de-ionized water, with shaking, at 37° C. Stocks were store at −70° C. until use.
Bacteria were incubated on a tryptic soy agar plate containing 5% sheep blood (Becton Dickinson cat. nr. 254053) for 18-24 hours at 35° C. in aerobic conditions (first passage). For the second passage, fresh Mueller-Hinton broth is inoculated with 5-10 colonies and grown overnight at 35° C. until turbidity (reaching log-phase) in aerobic conditions is reached. The bacterial suspension is then adjusted to 0.5 McFarland density and further diluted 1:100 in Mueller Hinton broth medium. This is used as inoculum.
MIC assays were performed by the broth microdilution method in a 96-well format (flat-bottom microtitre plates) with a final volume of 0.1 ml Mueller Hinton broth containing two-fold serial dilutions of compounds and inoculated with 5×10^5 CFU/ml of bacteria (standard inoculum size according to CLSI guidelines). Inhibitors are typically varied over the range of 63 to 0.49 μM. The final DMSO concentration in the assay was 1.25% (maximum tolerable DMSO concentration=6%). In the assays where the effect of human serum on the activity of the compounds against S. aureus was tested, human serum was added at a final concentration of 10%. The plates were incubated at 35° C. for 16-20 hours. At the end of incubation the bacterial growth was quantified fluorometrically. For this, resazurin was added to all wells and the plates were re-incubated. The incubation time is dependent on the type of bacteria. A change in color from blue to pink indicated the growth of bacteria. The fluorescence was read in computer-controlled fluorometer (Fluoroskan Ascent FL, Labsystems) at an excitation wavelength 540 nm and an emission wavelength of 590 nm. The % growth inhibition achieved by the compounds was calculated according to standard methods. The IC90 (expressed in μg/ml) was defined as the 90% inhibitory concentration for bacterial growth. A panel of reference compounds were simultaneously tested for QC approval.
The results are depicted in the table D2 below (STA+10% HS).

[2] = In vivo pharmacokinetic and oral bioavailability; settings: male Swiss mice; for half-life: read-out: Half life (t1/2) (converted)
Method: The in vivo pharmacokinetics and oral bioavailability of the compound of the examples was/is investigated in male Swiss mice (fed) following single intravenous (i.v.) bolus and oral (p.o.) administration. For the i.v. and p.o. solution formulations, the compound was/is dissolved in a 20% HP-β-CD solution. The pH of the formulations was/is around pH 4. All i.v. formulations were isotonic.

H. influenza ATCC 49247 = assay: MIC broth microdilution (CLSI), H. influenza ATCC 49247; format: cell-based; settings: Haemophilus influenzae, ATCC49247, HTM broth
Method: (§1) Minimum Inhibitory Concentrations (MICs) were determined in accordance with the Clinical and Laboratory Standards Institute (CLSI) methodology against aerobic bacteria (CLSI M07-A8) (see Clinical and Laboratory Standards Institute. 2009. Methods for dilution antimicrobial susceptibility tests for bacteria that grow aerobically. CLSI document M07-A8, Vol. 29, No. 2.) by the broth microdilution method with cation-adjusted Mueller-Hinton broth (CA-MHB) medium for the majority of organisms, except for Haemophilus influenza, where Haemophilis test medium (HTM) broth was used. Descriptions of the individual organisms can be found in the table. Where possible, ATCC standard strains were tested.
(§2) The inoculum density for the susceptibility testing was standardized to give a final inoculum of approximately 5×10^5 CFU/mL.
(§3) Stock solutions of the compounds were prepared in DMSO at concentrations of 1 mg/mL. Linezolid was prepared in DMSO at a concentration of 2 mg/mL. Stock solutions of all compounds were diluted into CA-MHB to give a range of two-fold dilutions, depending upon the sensitivity of the organism being tested.

M. catarrhalis ATCC 8176 = assay: MIC broth microdilution (CLSI), M. catarrhalis ATCC 8176; format: cell-based; settings: Moraxella catarrhalis, ATCC8176
Method: as §1, §2, §3

[3] = mouse, plasma, iv, i.v. 2.5 mg/kg
[4] = mouse, plasma, po, p.o. 10 mg/kg

| SMILES | pIC50 [1] | IC90 (S. aureus) [µg/mL] | Vdz ([2]; i.v. 2.5 mg/kg) [L/kg] | AUC(0-inf) [2, 3] [ng·h/mL] | C0 ([2]; mouse, plasma, iv, i.v. 2.5 mg/kg, 20% HP-β-CD solution) [ng/mL] | half-life [2, 3] [min] | clearance ([2]; mouse, plasma, iv, i.v. 2.5 mg/kg, read-out: Plasma clearance Cl (converted)) [mL/min/kg] | bioavailability ([2]; mouse, plasma, po, p.o. 10 mg/kg vs i.v. 2.5 mg/kg) [%] | AUC(0-inf) [2, 4] [ng·h/mL] | Tmax [2, 4] [min] | Cmax ([2]; mouse, plasma, po, p.o. 10 mg/kg, 20% HP-β-CD solution) [ng/mL] | half-life [2, 4] [min] | MIC90 (H. influenza ATCC 49247) [µg/mL] | MIC90 (M. catarrhalis ATCC 8176) [µg/mL] |
| --- | --- | --- | --- | --- | --- | --- | --- | --- | --- | --- | --- | --- | --- | --- |
| O=C1CCc2cc(/C=C/C(=O)N3CCC=C(c4ccccc4)CC3)cnc2N1 [Co. No. 2] | 6.05 | 0.33 |  |  |  |  |  |  |  |  |  |  |  |  |
| COc1ccc(F)cc1C1=CCCN(C(=O)/C=C/c2cnc3c(c2)CCC(=O)N3)CC1 [Co. No. 27] | 5.97 | 0.33 | 1.2 | 3560 | 3350 | 66 | 12.5 | 89 | 12600 | 30 | 4640 | 120 | > 8 | 1 (≈ 2.37 µM) |

From patent publication US9394295B2, “Antibacterial homopiperidinyl substituted 3,4-dihydro-1H-[1,8]naphthyridinones” (Janssen Sciences Ireland UC, priority 2011, dated 2016)
